Like-named read-outs stand apart in the source and are kept apart here.
Key:
[1] = system: ovulation; conditions: in vivo; cited from earlier work
[2] = system: ovulation; experiment: inhibition of ovulation, test compound given orally on the day of proestrus; absence of ova in oviduct; assay type: in vivo; conditions: oral, rat
Protocol: The compounds of the invention are ovulation inhibitors, with a longer duration of action than the monochloromelatonins. The degree of ovulation inhibitory activity was determined according to the following protocol.
Adult female rats with regular estrus cycles of four days each are employed. The estrus cycle consists of 2 days of diestrus followed by a day of proestrus and then a day of estrus. […] On the afternoon of proestrus, luteinizing hormone (LH) is released into the blood by the pituitary gland. The LH travels to the ovary where it induces ovulation, resulting in the presence of eggs in the oviduct on the day of estrus.
The test compound is administered orally at predetermined times on the day of proestrus. The rat is sacrificed on the following day (estrus). The oviduct is removed and examined microscopically for the presence of ova.
In the Table, column 1 gives the name of the compound, column 2 the time of administration and column 3 the percent inhibition of ovulation.

[3] = system: estrous phase of the estrous cycle and ovulation; conditions: rats; cited from earlier work
[4] = system: estrous phase of the estrous cycle and ovulation; conditions: mice; cited from earlier work
[5] = time of administration 10:00 a.m.

## COc1cc2c(CC(C)NC(C)=O)c[nH]c2cc1Cl (stereo not drawn) [α-methyl-6-chloromelatonin]
[1]
  effect of α-methyl substitution on ovulation-blocking activity: no significant effect

## COc1cc2c(CCNC(C)=O)c[nH]c2c(Cl)c1Cl [6,7-dichloromelatonin, N-acetyl-5-methoxy-6,7-dichlorotryptamine]
[2]; [5]
  Percent Inhibition of ovulation: 100%

## COc1cc2c(CCNC(C)=O)c(C)[nH]c2c(Cl)c1Cl [2-methyl-6,7-dichloromelatonin]
[2]; time of administration 8:00 a.m.
  Percent Inhibition of ovulation: 100%

## COc1cc2c(CCNC(C)=O)c[nH]c2cc1F [6-fluoromelatonin]
[1]
  ovulation blocking activity: increased ovulation blocking activity

## COc1ccc2[nH]cc(CCNC(C)=O)c2c1 [melatonin, N-[2-(5-methoxy-3-indolyl)ethyl]acetamide]
[3]
  inhibition of estrous phase of the estrous cycle: inhibited
  inhibition of ovulation: inhibited
[4]
  inhibition of estrous phase of the estrous cycle: inhibited
  inhibition of ovulation: inhibited

## COc1cc2c(CCNC(C)=O)c[nH]c2cc1Cl [6-chloromelatonin]
[2]; [5]
  Percent Inhibition of ovulation: 0%
[1]
  ovulation blocking activity: increased ovulation blocking activity
